Measured values as given in ChEMBL document CHEMBL5252567, “Tetrazole-based inhibitors of the bacterial enzyme N-succinyl-l,l-2,6-diaminopimelic acid desuccinylase as potential antibiotics” (Bioorg Med Chem Lett, 2023).

Key:
[1] = target: T1, Succinyl-diaminopimelate desuccinylase (Haemophilus influenzae (strain ATCC 51907 / DSM 11121 / KW20 / Rd), UniProt P44514); assay: Inhibition of Haemophilus influenzae DapE
T1 sequence (P44514 whole entry): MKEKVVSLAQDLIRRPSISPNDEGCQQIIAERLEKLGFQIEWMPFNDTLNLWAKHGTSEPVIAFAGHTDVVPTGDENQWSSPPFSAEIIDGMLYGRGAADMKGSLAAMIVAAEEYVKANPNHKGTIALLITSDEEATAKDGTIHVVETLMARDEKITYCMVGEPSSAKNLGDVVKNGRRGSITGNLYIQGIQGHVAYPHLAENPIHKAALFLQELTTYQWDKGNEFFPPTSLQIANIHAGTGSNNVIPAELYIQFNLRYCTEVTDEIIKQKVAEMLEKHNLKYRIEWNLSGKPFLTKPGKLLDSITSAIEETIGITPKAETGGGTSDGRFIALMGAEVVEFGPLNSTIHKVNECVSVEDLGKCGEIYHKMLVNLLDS

[2] = target: T2, Succinyl-diaminopimelate desuccinylase (Haemophilus influenzae (strain ATCC 51907 / DSM 11121 / KW20 / Rd)) (UniProt P44514); assay: Inhibition of Haemophilus influenzae DapE at 100 uM relative to control
T2 sequence (whole entry): T1 sequence (P44514 whole entry)

[3] = target: T2, Succinyl-diaminopimelate desuccinylase (Haemophilus influenzae (strain ATCC 51907 / DSM 11121 / KW20 / Rd)); assay: Inhibition of Haemophilus influenzae DapE at 75 uM relative to control

Row | IC50 [1] | inhibition [2] | inhibition [3] | Compound
1 | 134 µM | 55.4% | – | CC(Sc1nnnn1-c1ccccc1)C(=O)Nc1ccccc1 (centres undefined)
2 | – | 26.5% | – | O=C(CSc1nnnn1-c1ccccc1)Nc1ccccn1
3 | – | 49.2% | – | O=C(CSc1nnnn1-c1ccccc1)Nc1ccon1
4 | – | 17.2% | – | CC(Sc1nnnn1-c1ccccc1)C(=O)Nc1ccon1 (centres undefined)
5 | – | 10.2% | – | O=C(CSc1nnnn1-c1ccccc1)Nc1cnccn1
6 | 50.2 µM | 71.5% | – | O=C(CSc1nnnn1-c1ccccc1)Nc1nccs1
7 | 54.3 µM | 83.8% | – | O=C(CSc1nnnn1-c1ccccc1)Nc1ccccc1
8 | – | 23.2% | – | CC(Sc1nnnn1-c1ccccc1)C(=O)Nc1ccccn1 (centres undefined)
9 | – | 36.3% | – | CC(Sc1nnnn1-c1ccccc1)C(=O)NCc1ccccc1 (centres undefined)
10 | 103 µM | 61.5% | – | O=C(CSc1nnnn1-c1ccccc1)NCc1ccccc1
11 | – | 35.6% | – | CC(Sc1nnnn1-c1ccccc1)C(=O)Nc1nccs1 (centres undefined)
12 | 57.3 µM | 71% | – | CC(Sc1nnnn1-c1ccccc1)C(=O)Nc1ccc(Cl)cn1 (centres undefined)
13 | – | – | 39.5% | O=C(CSc1nnnn1-c1ccccc1)Nc1ccc(Cl)cn1
14 | – | 9.7% | – | CC(Sc1nnnn1-c1ccccc1)C(=O)Nc1cnccn1 (centres undefined)
